Source: ChEMBL document CHEMBL1138376, “Identification of a series of highly potent activators of the Nurr1 signaling pathway” (Bioorg Med Chem Lett, 2007)

Legend:
[1] = biological target: T1, Nuclear receptor subfamily 4 group A member 2 (Homo sapiens, UniProt P43354); assay: Activation of Nurr1 expressed in MN9D cells by luciferase reporter gene assay relative to control; type: cell-based; design: concentration or dose not given beside the values
[2] = biological target: T1, Nuclear receptor subfamily 4 group A member 2; assay: Activation of Nurr1 expressed in MN9D cells by luciferase reporter gene assay; type: cell-based
[3] = Bioavailability in mouse at 10 umol/kg, po; type: ADME, organism-based; conditions: in vivo

T1 sequence (P43354 whole entry): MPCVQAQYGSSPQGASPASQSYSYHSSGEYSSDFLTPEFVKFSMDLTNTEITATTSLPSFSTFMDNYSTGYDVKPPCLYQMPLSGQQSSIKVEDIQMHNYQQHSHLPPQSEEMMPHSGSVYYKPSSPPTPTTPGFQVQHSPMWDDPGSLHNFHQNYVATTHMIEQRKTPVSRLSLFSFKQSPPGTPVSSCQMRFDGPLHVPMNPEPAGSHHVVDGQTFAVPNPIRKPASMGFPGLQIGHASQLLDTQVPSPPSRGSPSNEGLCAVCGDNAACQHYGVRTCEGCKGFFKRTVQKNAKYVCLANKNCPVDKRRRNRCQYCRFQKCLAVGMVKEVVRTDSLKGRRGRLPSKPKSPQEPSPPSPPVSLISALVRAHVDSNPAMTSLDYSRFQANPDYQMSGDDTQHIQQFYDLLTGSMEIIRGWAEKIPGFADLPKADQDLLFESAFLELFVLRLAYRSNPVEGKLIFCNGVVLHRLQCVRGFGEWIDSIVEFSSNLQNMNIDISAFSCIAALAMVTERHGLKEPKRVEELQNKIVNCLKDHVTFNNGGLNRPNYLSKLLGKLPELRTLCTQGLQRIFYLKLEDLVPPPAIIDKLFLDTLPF

Compound	Activity [1]	EC50 [2]	bioavailability [3]
O=c1[nH]c(-c2ccccc2)cc2onc(-c3ccccc3)c12 [ISOXAZOLOPYRIDINONE]	207%	0.0775 µM	–
CC(C)OCCOCc1ccc(-c2cc3onc(-c4ccccc4)c3c(=O)n2C)cc1	173%	0.113 µM	–
COc1ccc(-c2cc3onc(-c4ccccc4)c3c(=O)n2C)c(OC)c1	202%	0.0592 µM	–
Cn1c(-c2ccc(Oc3ccccc3)cc2)cc2onc(-c3ccccc3)c2c1=O	–	> 2 µM	–
Cn1c(-c2ccncc2)cc2onc(-c3ccccc3)c2c1=O	198%	0.13 µM	–
Cc1cc2onc(-c3ccccc3)c2c(=O)n1C	–	> 2 µM	–

Compounds with a lower EC50 [2], results first:

Activity [1]	EC50 [2]	bioavailability [3]	Compound
171%	0.026 µM	–	CN(C)Cc1ccc(-c2cc3onc(-c4ccccc4)c3c(=O)n2C)cc1
202%	0.0008 µM	–	Cn1c(-c2ccc3c(c2)OCO3)cc2onc(-c3ccccc3)c2c1=O
185%	0.0041 µM	–	COc1ccc(-c2cc3onc(-c4ccccc4)c3c(=O)n2C)cc1
226%	0.0035 µM	–	Cn1c(-c2ccc(COCCO)cc2)cc2onc(-c3ccccc3)c2c1=O
208%	0.0039 µM	95%	COCCOCc1ccc(-c2cc3onc(-c4ccccc4)c3c(=O)n2C)cc1
163%	0.0319 µM	–	CN1CCN(Cc2ccc(-c3cc4onc(-c5ccccc5)c4c(=O)n3C)cc2)CC1
